This experiment deals with PMN killing of a pathogenic strain of Escherichia coli. Nature of the experiment: Bacterial killing assay (total, phagocytic, NET-mediated). The settings on record: LPS-stimulated PMNs, E. coli. The class given is cell-based, human. As for the experimental part: FIG. 6A is a graph depicting results, after preincubation, of neutrophils that were stimulated with LPS (100 ng/mL) to trigger NET formation and incubated with a pathogenic isolate of E. coli. Total, phagocytic, and NET-mediated bacterial killing were measured (see Yost C C, et al., Blood. 2009; 113 (25):6419-27). One way ANOVA with Bonferonni's post hoc testing; *P<0.05, **P<0.01.
NET-mediated and phagocytic bacterial killing by primary human PMNs was determined as previously described (see Yost C C, et al., Blood. 2009; 113 (25):6419-27).
Without being bound by any specific theory, it was hypothesized that placentally expressed HTRA1, a serine protease, regulates the formation of NET-inhibitory peptides through cleavage of AAT. To test this hypothesis, term and preterm placenta were assessed for HTRA1 expression via western blotting. HTRA1 and AAT plasma expression from term and preterm infants and adults were determined by ELISA. Bioactive (0.5 μg) or placental eluted HTRA1 was incubated with AAT (8 μM) for 18 hours at 37° C. Carboxy-terminus fragments of AAT were detected using western blotting and mass spectrometry. The reaction products were incubated for 1 hour with PMNs isolated from healthy adults prior to LPS stimulation (100 ng/mL) and assessed for NET formation using live cell imaging. Reactive oxygen species were assessed using flow cytometry, chemotaxis using a modified Boyden chamber assay, and bacterial killing using E. coli.

One substance from patent publication US10857201B2, “NNIF and nNIF-related peptides and related methods” (UNIVERSITY OF UTAH RESEARCH FOUNDATION, priority 2016, dated 2020) can be followed below.

For “M_IPPEVKFNKPFVFLMIDQNTKVPLFMGK [CRISPP, consensus peptide based on factors present in the blood of patients with cancer]”, the “extracellular NET-mediated bacterial killing” value was “depressed”, the phagocytic intracellular killing entry is reported as “not altered” and the total bacterial killing entry is given as “depressed”.
